Measured values as given in article PMC9995496, “A screen for MeCP2-TBL1 interaction inhibitors using a luminescence-based assay” (Scientific Reports, 2023).
Structures can show the parent of a compound that is named as a salt. Where two headings read alike, the source gives them in different places. Numbered stars: 1 amine (or outer) side, 2 acyl side, 3 side chain; on linkers, the order of the positions; unused ones are H or OH. Bridge positions count the residues as written; N and C are the ends. Square brackets hold non-standard residues; d marks the D form. Peptide text beside a SMILES is read from it. * marks the point of attachment. hTyr(3S-OH,4S-OH,3'-OSO3H) = N[C@H](C(=O)O)[C@H](O)[C@@H](O)c1ccc(O)c(OS(=O)(=O)O)c1; Orn(4R-OH,5R-OH) = O=C([C@H](C[C@@H](O)[C@@H](O)N[*:3])N[*:1])[*:2]; Pro(3S-OH,4S-Me) = C[C@H]1CN[C@H](C(=O)O)[C@H]1O; X1 = CCCCCOc1ccc(-c2cc(-c3ccc(C(=O)*)cc3)no2)cc1; Gln(3R-OH) = NC(=O)C[C@@H](O)[C@H](N)C(=O)O; Hyp = O=C(O)[C@@H]1C[C@@H](O)CN1

Test system: PRKACA-PRKAR2A interaction (SmBiT-PRKACA / LgBiT-PRKAR2A), protein kinase A
Design: NanoLuc complementation counter-screen in cell extract, PRKACA with PRKAR2A, loss of luminescence, detects NanoLuc interference
Conditions: 0.5 h, 20 µM, inhibitor
[1] = counter-screen for NanoLuc interference
[2] = counter-screen for NanoLuc interference, Inh (PKA)

Row | Compound | Inh (PKA) [1] | also measured
1 | CN[C@@H](C)C(=O)N[C@H](C(=O)N1CCC[C@H]1c1nc(C(=O)c2ccc(F)cc2)cs1)C1CCCCC1 [UM0141576:01, LCL161] | 0.904% | –
2 | c1ccc2c(-c3cnn4cc(-c5ccc(N6CCNCC6)cc5)cnc34)ccnc2c1 [UM0141577:01, LDN193189 Hydrochloride] | – | Inh (PKA) [2]: 9.112%
3 | COC(=O)N[C@H](C(=O)N1CC2(CC2)C[C@H]1c1nc(-c2ccc3c(c2)C(F)(F)c2cc(-c4ccc5[nH]c([C@@H]6[C@H]7CC[C@H](C7)N6C(=O)[C@@H](NC(=O)OC)C(C)C)nc5c4)ccc2-3)c[nH]1)C(C)C [UM0141578:01, Ledipasvir] | 1.236% | –
4 | CC1(C)O[C@H]2CC(=O)OC[C@]23[C@H]2CC[C@@]4(C)[C@H](c5ccoc5)OC(=O)[C@H]5O[C@]54[C@]2(C)C(=O)C[C@@H]13 [UM0141579:01, Limonin] | 0.3774% | –
5 | COc1cc(C(=O)N2CCC(N3CCN(C)CC3)CC2)ccc1Nc1ncc2c(n1)N(C)c1ccccc1C(=O)N2C [UM0141580:01, LRRK2-IN-1] | 12.15% | –
6 | O=C1NC(=O)C(c2cnc3ccccn23)=C1c1cn2c3c(cc(F)cc13)CN(C(=O)N1CCCCC1)CC2 [UM0141581:01, LY2090314] | 40.49% | –
7 | Cc1ccc(C(=O)Nc2ccc(Oc3cc4cnn(C)c4cc3-c3cn[nH]c3)c(F)c2)c(=O)n1-c1ccc(F)cc1 [UM0141582:01, LY2801653] | 33.02% | –
8 | C[C@@H](Oc1ccc2[nH]nc(/C=C/c3cnn(CCO)c3)c2c1)c1c(Cl)cncc1Cl [UM0141583:01, LY2874455] | 40.12% | –
9 | O=C1CCC[C@@H]2[C@H]3CCCN4CCC[C@@H](CN12)[C@@H]34 [UM0141584:01, Matrine] | 1.794% | –
10 | CCCCCOc1ccc(-c2cc(-c3ccc(C(=O)N[C@H]4C[C@@H](O)[C@@H](O)NC(=O)[C@@H]5[C@@H](O)[C@@H](C)CN5C(=O)[C@H]([C@H](O)CC(N)=O)NC(=O)[C@H]([C@H](O)[C@@H](O)c5ccc(O)c(OS(=O)(=O)O)c5)NC(=O)[C@@H]5C[C@@H](O)CN5C(=O)[C@H]([C@@H](C)O)NC4=O)cc3)no2)cc1 [UM0141585:01, Micafungin sodium] (X1-[Orn(4R-OH,5R-OH)]T[Hyp][hTyr(3S-OH,4S-OH,3'-OSO3H)][Gln(3R-OH)][Pro(3S-OH,4S-Me)]; lactam 1-C) | 7.755% | –
11 | NC(=O)c1cccc2cn(-c3ccc([C@@H]4CCCNC4)cc3)nc12 [UM0141586:01, MK-4827] | 5.692% | –
12 | C=C[C@@H]1C[C@]1(NC(=O)[C@@H]1C[C@@H]2CN1C(=O)[C@H](C(C)(C)C)NC(=O)O[C@@H]1C[C@H]1CCCCCc1nc3ccc(OC)cc3nc1O2)C(=O)NS(=O)(=O)C1CC1 [UM0141587:01, MK-5172] | 6.735% | –
13 | COc1c(Cl)cc2c([nH]c3cnccc32)c1NC(=O)c1cccnc1C [UM0141589:01, MLN120B] | 5.314% | –
14 | Cc1c(O)cccc1C(=O)N[C@@H](CSc1ccccc1)[C@H](O)CN1C[C@H]2CCCC[C@H]2C[C@H]1C(=O)NC(C)(C)C [UM0141590:01, Nelfinavir Mesylate] | 3.843% | –
15 | CNC(=O)c1c(-c2ccc(F)cc2)oc2cc(N(CCO)S(C)(=O)=O)c(C3CC3)cc12 [UM0141591:01, Nesbuvir] | 3.406% | –
16 | C[C@H](Cc1ccc(O)c(O)c1)[C@@H](C)Cc1ccc(O)c(O)c1 [UM0141592:01, Nordihydroguaiaretic acid] | 80.65% | –
17 | CCOC(=O)C1=C[C@@H](OC(CC)CC)[C@H](NC(C)=O)[C@@H](N)C1 [UM0141595:01, Oseltamivir] | – | Inh (PKA) [2]: 0.436%
18 | CCC(CC)O[C@@H]1C=C(C(=O)O)C[C@H](N)[C@H]1NC(C)=O [UM0141596:01, Oseltamivir acid] | 1.334% | –
19 | COC(=O)[C@H](Cc1cccc(C(=N)N)c1)[C@@H](C)NC(=O)c1ccc(-c2cc[n+]([O-])cc2)cc1 [UM0141597:01, Otamixaban] | 3.513% | –
20 | Nc1nc2[nH]cc(CCc3ccc(C(=O)N[C@@H](CCC(=O)O)C(=O)O)cc3)c2c(=O)[nH]1 [UM0141598:01, Pemetrexed disodium hemipenta hydrate] | – | Inh (PKA) [2]: 0.5825%

Row | Compound | Inh (PKA) [1] | also measured
21 | CCCC(CCC)C(=O)O [UM0141598:02, Valproic acid sodium salt (Sodium valproate)] | – | Inh (PKA) [2]: 0.874%
22 | O=C(O)CCCc1ccccc1 [UM0141598:03, Sodium Phenylbutyrate] | 1.56% | –
23 | OC[C@H]1O[C@@H](n2cnc3c2N=CNC[C@H]3O)C[C@@H]1O [UM0141599:01, Pentostatin] | 1.284% | –
24 | CCC(CC)[C@H](NC(C)=O)[C@@H]1[C@H](O)[C@@H](C(=O)O)C[C@H]1NC(=N)N [UM0141600:01, Peramivir] | – | Inh (PKA) [2]: 2.459%
25 | Cc1nc(Nc2n[nH]c3c2CN(C(=O)N[C@H](CN(C)C)c2ccccc2)C3(C)C)c2sccc2n1 [UM0141601:01, PF-3758309] | 66.65% | –
26 | Nc1nccc(-c2c(-c3ccc(F)cc3)ncn2C2CCCCC2)n1 [UM0141603:01, PF-670462] | 48.77% | –
27 | O=C(CCN1CCN(C(=O)OCc2cc(Cl)cc(Cl)c2)CC1)c1ccc2[nH]c(=O)oc2c1 [UM0141604:01, PF-8380] | 13.11% | –
28 | O=C1NCCc2[nH]c(-c3ccncc3)cc21 [UM0141605:01, PHA-767491] | 1.427% | –
29 | Oc1cccc(-c2nc(N3CCOCC3)c3oc4ncccc4c3n2)c1 [UM0141606:01, PI-103 Hydrochloride] | – | Inh (PKA) [2]: 17.85%
30 | CNC(=O)c1ccccc1Nc1cc(Nc2ccc(N3CCOCC3)cc2OC)ncc1C(F)(F)F [UM0141607:01, PND-1186] | 14.93% | –
31 | CC1=CC(=O)C(C(C)C)=C/C1=N/OC(=O)c1ccccc1C [UM0141608:01, Poloxin] | 31.48% | –
32 | NC(=O)c1cnc(N[C@@H]2CCCC[C@@H]2N)nc1Nc1cccc(-n2nccn2)c1 [UM0141609:01, PRT062607 Hydrochloride] | 22.19% | –
33 | CC(C)OC(=O)[C@H](C)N[P@](=O)(OC[C@H]1O[C@@H](n2ccc(=O)[nH]c2=O)[C@](C)(F)[C@@H]1O)Oc1ccccc1 [UM0141610:01, PSI-7977] | 2.04% | –
34 | CNC(=O)c1cc(Oc2ccc(NC(=O)Nc3ccc(Cl)c(C(F)(F)F)c3)c(F)c2)ccn1 [UM0141611:01, Regorafenib monohydrate] | – | Inh (PKA) [2]: 6.023%
35 | CNC(=O)c1cc(Oc2ccc(NC(=O)Nc3ccc(Cl)c(C(F)(F)F)c3)c(F)c2)ccn1 [UM0141611:02, Regorafenib] | – | Inh (PKA) [2]: 5.988%
36 | CC(C)Cc1ccc([C@@H](C)C(=O)NS(C)(=O)=O)cc1 [UM0141612:01, Reparixin] | – | Inh (PKA) [2]: 5.153%
37 | CC(C)Cc1ccc([C@@H](C)C(=O)NS(C)(=O)=O)cc1 [UM0141612:02, Reparixin L-lysine salt] | – | Inh (PKA) [2]: 7.24%
38 | Cc1cccc(-c2[nH]ncc2-c2ccc3ncccc3n2)n1 [UM0141613:01, RepSox] | 2.359% | –
39 | c1nc2c(NC3CCCCC3)nc(Nc3ccc(N4CCOCC4)cc3)nc2[nH]1 [UM0141614:01, Reversine] | 32.72% | –
40 | CCOc1cc(C(C)(C)C)ccc1C1=N[C@@](C)(c2ccc(Cl)cc2)[C@@](C)(c2ccc(Cl)cc2)N1C(=O)N1CCN(CCCS(C)(=O)=O)CC1 [UM0141616:01, RG7112] | 18.3% | –

Row | Compound | Inh (PKA) [1] | also measured
41 | COc1cc(C(=O)O)ccc1NC(=O)[C@@H]1N[C@@H](CC(C)(C)C)[C@](C#N)(c2ccc(Cl)cc2F)[C@H]1c1cccc(Cl)c1F [UM0141617:01, RG7388] | 51.62% | –
42 | Cc1cc(/C=C/C#N)cc(C)c1Nc1ccnc(Nc2ccc(C#N)cc2)n1 [UM0141618:01, Rilpivirine] | 30.56% | –
43 | COC(=O)N(C)c1c(N)nc(-c2nn(Cc3ccccc3F)c3ncccc23)nc1N [UM0141619:01, Riociguat] | 2.487% | –
44 | CCN(C)C(=O)Oc1cccc([C@H](C)N(C)C)c1 [UM0141620:01, Rivastigmine] | – | Inh (PKA) [2]: 1.357%
45 | O=C(NCc1cccc(O)c1)Nc1nc(-c2ccncc2)cs1 [UM0141621:01, RKI-1447] | -11% | –
46 | N#CC[C@H](C1CCCC1)n1cc(-c2ncnc3[nH]ccc23)cn1 [UM0141622:01, Ruxolitinib phosphate] | – | Inh (PKA) [2]: 28.19%
47 | CC(C)=CCC/C(C)=C/CC/C(C)=C/CSc1ccccc1C(=O)O [UM0141623:01, Salirasib] | 61.94% | –
48 | CC(C)(C)NC(=O)[C@@H]1C[C@@H]2CCCC[C@@H]2CN1C[C@@H](O)[C@H](Cc1ccccc1)NC(=O)[C@H](CC(N)=O)NC(=O)c1ccc2ccccc2n1 [UM0141624:01, Saquinavir mesylate] | 9.291% | –
49 | COc1nccc(-c2c(-c3ccc(F)cc3)ncn2[C@H]2CC[C@H](O)CC2)n1 [UM0141625:01, SB 239063] | 17.29% | –
50 | O=C(Nc1ccc2[nH]nc(-c3ccncc3)c2c1)[C@@H]1CCN(CC(=O)N2CCN(c3ccc(-c4ncccn4)cc3)CC2)C1 [UM0141626:01, SCH772984] | – | Inh (PKA) [2]: 11.73%
51 | CCOc1ccc(Oc2ccc(OCc3cc(F)ccc3F)cc2)c(N)c1 [UM0141627:01, SEA0400] | 3.449% | –
52 | CCCc1nn(C)c2c(=O)[nH]c(-c3cc(S(=O)(=O)N4CCN(C)CC4)ccc3OCC)nc12 [UM0141628:01, Sildenafil] | – | Inh (PKA) [2]: -0.5342%
53 | COc1ccc2c(O[C@@H]3C[C@H]4C(=O)N[C@]5(C(=O)NS(=O)(=O)C6CC6)C[C@H]5/C=C\CCCCN(C)C(=O)[C@@H]4C3)cc(-c3nc(C(C)C)cs3)nc2c1C [UM0141629:01, Simeprevir] | – | Inh (PKA): 16.13
54 | O=C1c2ccccc2C(=O)c2oc(-c3ccccc3)nc21 [UM0141630:01, SJB2-043] | 4.073% | –
55 | O=C1c2ccc(Nc3ccc(F)cc3F)cc2CCc2ccc(OC[C@H](O)CO)cc21 [UM0141631:01, Skepinone-L] | 17.25% | –
56 | CC(C)NC(=O)COc1cccc(-c2nc(Nc3ccc4[nH]ncc4c3)c3ccccc3n2)c1 [UM0141632:01, SLx-2119] | 49.23% | –
57 | Cc1c[nH]c(/C=C2\C(=O)Nc3ccccc32)c1CCC(=O)O [UM0141633:01, SU 5402] | 46.56% | –
58 | CCOC(=O)C1=CCCC[C@H]1S(=O)(=O)Nc1ccc(F)cc1Cl [UM0141634:01, TAK-242] | 47.57% | –
